Values joined by “and” are separate entries in the source; they are usually repeats but may differ in a detail not shown here. Equal entries are not always repeated.
Experiment: Biodistribution of [18F]6a and [18F]6b in normal mice (iv injection)
Format: in vivo, ICR mice
Experimental: While under isoflurane anesthesia, 0.15 mL of a 0.1% bovine serum albumin solution containing [^18F]tracers (10-20 μCi) were injected directly into the tail vein of ICR mice (22-25 g, male) The mice (n=3 for each time point) were sacrificed by cervical dislocation at indicated time points post injection. The organs of interest were removed and weighed, and the radioactivity was counted with an automatic gamma counter. The percentage dose per organ was calculated by a comparison of the tissue counts to suitably diluted aliquots of the injected material. Total activities of blood were calculated under the assumption that they were 7% of the total body weight. The % dose/g of samples was calculated by comparing the sample counts with the count of the diluted initial dose.

## COc1cc2c(cc1OCCC[18F])CCN1CC(CC(C)C)C(O)CC21 (racemic) [[^18F]6b]
30 min p.i., normal mice
  remaining in brain (brain washout): 13%
mice, iv, 2 min
  brain uptake: 7.08 % ID/g
mice, iv, time not stated
  ST/CB ratio: 3.0
Normal mice, iv, 2 min
  Organ distribution Blood: 2.60 ± 0.31 % dose/g
  Organ distribution Bone: 2.70 ± 0.44 % dose/g
  Organ distribution Brain: 7.08 % dose/g and 7.08 ± 2.17 % dose/g
  Organ distribution Heart: 6.79 ± 1.49 % dose/g
  Organ distribution Kidney: 16.1 ± 3.13 % dose/g
  Organ distribution Liver: 24.1 ± 4.93 % dose/g
  Organ distribution Lung: 7.97 ± 1.46 % dose/g
  Organ distribution Muscle: 1.17 ± 0.16 % dose/g
  Organ distribution Skin: 1.13 ± 0.25 % dose/g
  Organ distribution Spleen: 9.19 ± 0.26 % dose/g
  Ratio (vs CB) Cortex: 1.32
  Ratio (vs CB) Hippocampus: 1.13
  Ratio (vs CB) Striatum: 1.36
  Regional brain distribution Cerebellum (CB): 6.26 ± 2.89 % dose/g
  Regional brain distribution Cortex: 8.25 ± 2.51 % dose/g
  Regional brain distribution Hippocampus: 7.07 ± 1.66 % dose/g
  Regional brain distribution Striatum: 8.49 ± 1.12 % dose/g
Normal mice, iv, 15 min
  Organ distribution Blood: 1.75 ± 0.07 % dose/g
  Organ distribution Bone: 3.65 ± 0.49 % dose/g
  Organ distribution Brain: 2.01 ± 0.10 % dose/g
  Organ distribution Heart: 2.43 ± 0.16 % dose/g
  Organ distribution Kidney: 5.90 ± 0.25 % dose/g
  Organ distribution Liver: 15.8 ± 1.65 % dose/g
  Organ distribution Lung: 3.58 ± 0.33 % dose/g
  Organ distribution Muscle: 1.16 ± 0.35 % dose/g
  Organ distribution Skin: 1.15 ± 0.16 % dose/g
  Organ distribution Spleen: 3.38 ± 0.49 % dose/g
  Ratio (vs CB) Cortex: 1.00
  Ratio (vs CB) Hippocampus: 1.31
  Ratio (vs CB) Striatum: 2.53
  Regional brain distribution Cerebellum (CB): 1.63 ± 0.05 % dose/g
  Regional brain distribution Cortex: 1.62 ± 0.05 % dose/g
  Regional brain distribution Hippocampus: 2.14 ± 0.16 % dose/g
  Regional brain distribution Striatum: 4.12 ± 0.52 % dose/g
Normal mice, iv, 30 min
  Organ distribution Blood: 1.92 ± 0.22 % dose/g
  Organ distribution Bone: 9.62 ± 3.42 % dose/g
  Organ distribution Brain: 1.76 ± 0.27 % dose/g
  Organ distribution Heart: 2.67 ± 0.26 % dose/g
  Organ distribution Kidney: 6.80 ± 0.65 % dose/g
  Organ distribution Liver: 17.3 ± 2.00 % dose/g
  Organ distribution Lung: 3.46 ± 0.36 % dose/g
  Organ distribution Muscle: 1.53 ± 0.16 % dose/g
  Organ distribution Skin: 2.22 ± 0.20 % dose/g
  Organ distribution Spleen: 3.40 ± 0.43 % dose/g
  Ratio (vs CB) Cortex: 1.11
  Ratio (vs CB) Hippocampus: 1.97
  Ratio (vs CB) Striatum: 3.0 and 2.95
  Regional brain distribution Cerebellum (CB): 1.30 ± 0.19 % dose/g
  Regional brain distribution Cortex: 1.45 ± 0.38 % dose/g
  Regional brain distribution Hippocampus: 2.55 ± 1.20 % dose/g
  Regional brain distribution Striatum: 3.84 ± 1.05 % dose/g
Normal mice, iv, 30 min, listed as [^1F]6b
  Organ distribution Bone: 9.62 % dose/g
Normal mice, iv, 1 hr
  Organ distribution Blood: 1.04 ± 0.07 % dose/g
  Organ distribution Bone: 16.6 ± 1.60 % dose/g
  Organ distribution Brain: 0.91 ± 0.25 % dose/g
  Organ distribution Heart: 1.74 ± 0.14 % dose/g
  Organ distribution Kidney: 3.63 ± 0.30 % dose/g
  Organ distribution Liver: 10.4 ± 0.95 % dose/g
  Organ distribution Lung: 2.15 ± 0.12 % dose/g
  Organ distribution Muscle: 1.05 ± 0.41 % dose/g
  Organ distribution Skin: 1.38 ± 0.03 % dose/g
  Organ distribution Spleen: 2.05 ± 0.05 % dose/g
  Ratio (vs CB) Cortex: 1.10
  Ratio (vs CB) Hippocampus: 1.35
  Ratio (vs CB) Striatum: 2.71
  Regional brain distribution Cerebellum (CB): 0.77 ± 0.06 % dose/g
  Regional brain distribution Cortex: 0.85 ± 0.12 % dose/g
  Regional brain distribution Hippocampus: 1.04 ± 0.16 % dose/g
  Regional brain distribution Striatum: 2.08 ± 0.27 % dose/g
Normal mice, iv, 2 hr
  Organ distribution Blood: 0.56 ± 0.07 % dose/g
  Organ distribution Bone: 17.8 ± 1.83 % dose/g
  Organ distribution Brain: 0.53 ± 0.05 % dose/g
  Organ distribution Heart: 1.02 ± 0.09 % dose/g
  Organ distribution Kidney: 2.40 ± 0.51 % dose/g
  Organ distribution Liver: 8.53 ± 1.73 % dose/g
  Organ distribution Lung: 1.40 ± 0.09 % dose/g
  Organ distribution Muscle: 0.56 ± 0.11 % dose/g
  Organ distribution Skin: 1.24 ± 0.53 % dose/g
  Organ distribution Spleen: 1.15 ± 0.41 % dose/g
  Ratio (vs CB) Cortex: 0.91
  Ratio (vs CB) Hippocampus: 1.12
  Ratio (vs CB) Striatum: 1.94
  Regional brain distribution Cerebellum (CB): 0.45 ± 0.01 % dose/g
  Regional brain distribution Cortex: 0.41 ± 0.06 % dose/g
  Regional brain distribution Hippocampus: 0.50 ± 0.06 % dose/g
  Regional brain distribution Striatum: 0.87 ± 0.24 % dose/g

Reference: patent US8562949B2, “Radiolabeled dihydrotetrabenazine derivatives and their use as imaging agents” (The Trustees of the University of Pennsylvania, priority 2006, dated 2013)
